According to the NIST ThermoML archive (doi:10.1021/je800579j):

Assay: refractive index (Na D-line) (dimensionless); xn = mol fraction of the nth substance listed
Conditions: Liquid, Standard Abbe refractometry

C1COCCO1 [1,4-dioxane] + c1ccccc1
refractive index
Conditions	288.15 K	293.15 K	298.15 K	303.15 K	308.15 K	313.15 K	318.15 K
x1 = 0.0713	1.4982	1.4951	1.4921	1.489	1.4859	1.4829	1.4798
x1 = 0.1403	1.4924	1.4894	1.4864	1.4834	1.4803	1.4773	1.4743
x1 = 0.2123	1.4864	1.4835	1.4805	1.4775	1.4746	1.4716	1.4686
x1 = 0.2809	1.4807	1.4778	1.4749	1.472	1.4691	1.4662	1.4633
x1 = 0.3528	1.4748	1.472	1.4692	1.4663	1.4635	1.4607	1.4578
x1 = 0.4195	1.4694	1.4666	1.4639	1.4611	1.4583	1.4556	1.4528
x1 = 0.5037	1.4626	1.4599	1.4573	1.4546	1.4519	1.4492	1.4465
x1 = 0.58	1.4565	1.4539	1.4513	1.4487	1.4461	1.4435	1.4409
x1 = 0.6504	1.451	1.4484	1.4459	1.4434	1.4409	1.4383	1.4357
x1 = 0.7197	1.4456	1.4432	1.4407	1.4382	1.4358	1.4332	1.4307
x1 = 0.7822	1.4408	1.4384	1.436	1.4336	1.4312	1.4287	1.4263
x1 = 0.8561	1.4352	1.4329	1.4306	1.4283	1.426	1.4236	1.4212
x1 = 0.9287	1.4298	1.4276	1.4254	1.4232	1.421	1.4187	1.4164
x1 = 1	1.4245	1.4224	1.4203	1.4182	1.4161	1.4139	1.4117
